Source: US20120324604A1, “PESTICIDAL MIXTURES CONTAINING ISOXAZOLINE DERIVATIVES AND A FUNGICIDE” (priority 2010, published 2012)
Where “and” joins values, the source holds several entries; their conditions need not be identical. Identical values can stand only once.

Columns and labels:
Type in all cases: cell-based
[1] = system: Glomerella lagenarium (syn. Colletotrichum lagenarium); assay: Glomerella lagenarium (Anthracnose of Cucurbits) growth inhibition, microtiter plate, photometric; settings: alone
Description: Glomerella lagenarium (syn. Colletotrichum lagenarium), Anthracnose of Cucurbits:
(§1) Conidia of the fungus from cryogenic storage were directly mixed into nutrient broth (potato dextrose broth). After placing a (DMSO) solution of the test compounds into a microtiter plate (96-well format) the nutrient broth containing the fungal spores was added.

[2] = system: Pythium ultimum; assay: Pythium ultimum (Damping Off) growth inhibition, microtiter plate, photometric
Description: Pythium ultimum (Damping Off):
Mycelial fragments of the fungus, prepared from a fresh liquid culture, were directly mixed into nutrient broth (potato dextrose broth). After placing a (DMSO) solution of the test compounds into a microtiter plate (96-well format) the nutrient broth containing the fungal spores was added.

[3] = system: Gaeumannomyces graminis; assay: Gaeumannomyces graminis growth inhibition, microtiter plate, photometric
Description: Mycelial fragments of the fungus from cryogenic storage were directly mixed into nutrient broth (potato dextrose broth). After placing a (DMSO) solution of the test compounds into a microliter plate (96-well format) the nutrient broth containing the fungal spores was added.

[4] = system: Rhizoctonia solani; assay: Rhizoctonia solani (Foot Rot, Damping-Off) growth inhibition, microtiter plate, photometric
Description: Rhizoctonia solani (Foot Rot, Damping-Off):
Mycelial fragments of the fungus from cryogenic storage were directly mixed into nutrient broth (potato dextrose broth). After placing a (DMSO) solution of the test compounds into a microtiter plate (96-well format) the nutrient broth containing the fungal spores was added.

[5] = system: Septoria tritici; assay: Septoria tritici (Leaf Blotch) growth inhibition, microtiter plate, photometric
Description: Septoria tritici (Leaf Blotch):
as §1

[6] = system: Mycosphaerella arachidis (syn. Cercospora arachidicola); assay: Mycosphaerella arachidis (Brown Leaf Spot of Groundnut) growth inhibition, microtiter plate, photometric; settings: alone
Description: Mycosphaerella arachidis (syn. Cercospora arachidicola), Brown Leaf Spot of Groundnut (Peanut):
as §1

[7] = single compound at 0.125 ppm AI

CO/C=C(\C(=O)OC)c1ccccc1Oc1cc(Oc2ccccc2C#N)ncn1 [Azoystrobin]
AVERAGE DEAD IN % ([1]; 0.0078125 ppm AI): 0%
AVERAGE DEAD IN % ([1]; 0.015625 ppm AI): 50%
AVERAGE DEAD IN % ([1]; 0.03125 ppm AI): 50%
AVERAGE DEAD IN % ([1]; 0.0625 ppm AI): 70%

COCC(=O)N(c1c(C)cccc1C)[C@H](C)C(=O)OC [Mefenoxam, reference compound]
AVERAGE DEAD IN % [2, 7]: 50% and 70%
AVERAGE DEAD IN % ([2]; single compound at 0.25 ppm AI): 70% and 90%
AVERAGE DEAD IN % ([2]; single compound at 0.5 ppm AI): 90% and 100%
AVERAGE DEAD IN % ([2]; single compound at 1 ppm AI): 100%
AVERAGE DEAD IN % ([2]; single compound at 2 ppm AI): 100%
AVERAGE DEAD IN % ([3]; single compound at 0.25 ppm AI): 0%
AVERAGE DEAD IN % ([3]; single compound at 0.5 ppm AI): 0%
AVERAGE DEAD IN % ([3]; single compound at 1 ppm AI): 0%

C#CCOc1ccc(CCNC(=O)C(OCC#C)c2ccc(Cl)cc2)cc1OC (stereo not shown) [Mandipropamid, reference compound]
AVERAGE DEAD IN % ([3]; single compound at 0.25 ppm AI): 0%
AVERAGE DEAD IN % ([3]; single compound at 0.5 ppm AI): 0%
AVERAGE DEAD IN % ([3]; single compound at 1 ppm AI): 0%

CC(C)C1C2CCC1c1c(NC(=O)c3cn(C)nc3C(F)F)cccc12 (stereo not shown) [Isopyrazam, reference compound]
AVERAGE DEAD IN % ([4]; applied alone, 0.015625 ppm AI): 0%
AVERAGE DEAD IN % ([4]; applied alone, 0.125 ppm AI): 70% and 90% and 100%
AVERAGE DEAD IN % ([4]; applied alone, 0.25 ppm AI): 90%
AVERAGE DEAD IN % ([4]; single compound at 0.0078125 ppm AI): 0%
AVERAGE DEAD IN % ([4]; single compound at 0.015625 ppm AI): 0%
AVERAGE DEAD IN % ([4]; single compound at 0.03125 ppm AI): 0%
AVERAGE DEAD IN % ([4]; single compound at 0.0625 ppm AI): 50%
AVERAGE DEAD IN % [4, 7]: 70%
AVERAGE DEAD IN % ([4]; single compound at 0.25 ppm AI): 90%
AVERAGE DEAD IN % ([3]; applied alone, 0.25 ppm AI): 0%
AVERAGE DEAD IN % ([3]; applied alone, 0.5 ppm AI): 0%
AVERAGE DEAD IN % ([3]; single compound at 0.5 ppm AI): 0%
AVERAGE DEAD IN % ([3]; single compound at 2 ppm AI): 50%
AVERAGE DEAD IN % ([5]; 0.0625 ppm AI, alone): 20%
AVERAGE DEAD IN % ([5]; 0.125 ppm AI, alone): 50%
AVERAGE DEAD IN % ([5]; 0.25 ppm AI, alone): 70%
AVERAGE DEAD IN % ([5]; 0.5 ppm AI, alone): 90%
AVERAGE DEAD IN % Isopyrazam ([5]; Isopyrazam alone, 0.0625 ppm AI): 20%
AVERAGE DEAD IN % Isopyrazam ([5]; Isopyrazam alone, 0.25 ppm AI): 90% and 70%
AVERAGE DEAD IN % Isopyrazam ([5]; Isopyrazam alone, 0.5 ppm AI): 90%
AVERAGE DEAD IN % ([5]; alone, 0.0078125 ppm AI): 0%
AVERAGE DEAD IN % ([5]; alone, 0.015625 ppm AI): 0%
AVERAGE DEAD IN % ([5]; alone, 0.03125 ppm AI): 0%
AVERAGE DEAD IN % ([5]; alone, 0.0625 ppm AI): 20%
AVERAGE DEAD IN % ([5]; alone, 0.125 ppm AI): 50%
AVERAGE DEAD IN % ([5]; alone, 0.25 ppm AI): 70%
AVERAGE DEAD IN % ([5]; alone, 0.5 ppm AI): 90%
AVERAGE DEAD IN % ([6]; 0.0078125 ppm AI): 0%
AVERAGE DEAD IN % ([6]; 0.015625 ppm AI): 0%
AVERAGE DEAD IN % ([6]; 0.03125 ppm AI): 20%
AVERAGE DEAD IN % ([6]; 0.0625 ppm AI): 70% and 90%
AVERAGE DEAD IN % ([6]; 0.015625 PPM AI): 0%
AVERAGE DEAD IN % ([6]; 0.03125 PPM AI): 20%
AVERAGE DEAD IN % ([6]; 0.0625 PPM AI): 50% and 70%
